ChEMBL document CHEMBL1154105, “Optimization of peptide-based inhibitors of prostate-specific antigen (PSA) as targeted imaging agents for prostate cancer” (Bioorg Med Chem, 2009)
Starred links: 1 amine or outer side, 2 acyl side, 3 side chain; linkers in the order of their positions; H or OH if unused. Non-standard residues stand in square brackets, D forms with d. Residues, ends and D or L forms follow the SMILES beside them. *: point of attachment. Ala(imidazol-2-yl) = N[C@@H](Cc1ncc[nH]1)C(=O)O; X2 = C[C@@H](C(=O)[*:2])N(c1ccc2ccccc2c1)[*:1]; Phe(4-Br) = N[C@@H](Cc1ccc(Br)cc1)C(=O)O; N(cHex)Ala = C[C@H](NC1CCCCC1)C(=O)O; Pro(3R-OH) = O=C(O)[C@H]1NCC[C@H]1O; hIle = CC[C@H](C)C[C@H](N)C(=O)O; Met(O) = CS(=O)CC[C@H](N)C(=O)O; boroLeu = CC(C)C[C@H](N*)B(O)O; NPhGly = O=C(O)CNc1ccccc1; Cbz = O=C(OCc1ccccc1)*; tBu = CC(C)(C)*

molecular target: T1, Prostate-specific antigen (Homo sapiens, UniProt P07288); assay: biochemical; type: tissue-based, Prostate gland; conditions: not given;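 further: Fluorescence-based readout of substrate cleavage by prostate-specific antigen, used to gauge enzyme inhibition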
T1 sequence (P07288 whole entry): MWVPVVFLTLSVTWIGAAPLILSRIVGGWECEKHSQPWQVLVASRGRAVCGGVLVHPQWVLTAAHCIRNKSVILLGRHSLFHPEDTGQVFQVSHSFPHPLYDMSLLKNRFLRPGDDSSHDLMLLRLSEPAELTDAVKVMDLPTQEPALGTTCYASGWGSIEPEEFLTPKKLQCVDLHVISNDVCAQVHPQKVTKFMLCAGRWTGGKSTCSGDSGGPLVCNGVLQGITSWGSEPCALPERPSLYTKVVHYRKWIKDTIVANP

Ki | SMILES
> 1000 µM | CC(C)C[C@@H](C=O)NC(=O)[C@H](CC(C)C)NC(=O)CNC(=O)[C@H](CO)NC(=O)[C@H](CO)NC(=O)OCc1ccccc1 (Cbz-SSGLL-aldehyde)
18.2 µM | CC(C)C[C@@H](C=O)NC(=O)[C@H](CC(C)C)NC(=O)[C@H](CC(N)=O)NC(=O)[C@H](CO)NC(=O)[C@H](CO)NC(=O)OCc1ccccc1 (Cbz-SSNLL-aldehyde)
> 1000 µM | CC(C)C[C@@H](C=O)NC(=O)[C@H](CC(C)C)NC(=O)[C@@H]1CCCN1C(=O)[C@H](CO)NC(=O)[C@H](CO)NC(=O)OCc1ccccc1 (Cbz-SSPLL-aldehyde)
3.9 µM | CC(C)C[C@@H](C=O)NC(=O)[C@H](CC(C)C)NC(=O)[C@H](CCC(N)=O)NC(=O)[C@H](CO)NC(=O)[C@H](CO)NC(=O)OCc1ccccc1 (Cbz-SSQLL-aldehyde)
> 50 µM | CC(C)C[C@@H](C=O)NC(=O)[C@H](CO)NC(=O)[C@H](CCCCN)NC(=O)[C@H](CO)NC(=O)[C@H](CO)NC(=O)OCc1ccccc1 (Cbz-SSKSL-aldehyde)
> 50 µM | CC(C)C[C@@H](C=O)NC(=O)[C@H](C)N(C(=O)[C@H](CCCCN)NC(=O)[C@H](CO)NC(=O)[C@H](CO)NC(=O)OCc1ccccc1)C1CCCCC1 (Cbz-SSK[N(cHex)Ala]L-aldehyde)
> 50 µM | CC(C)C[C@@H](C=O)NC(=O)[C@@H](NC(=O)[C@H](CCCCN)NC(=O)[C@H](CO)NC(=O)[C@H](CO)NC(=O)OCc1ccccc1)C(C)C (Cbz-SSKVL-aldehyde)
> 100 µM | CC(C)C[C@@H](C=O)NC(=O)[C@H](C)NC(=O)[C@H](CCCCN)NC(=O)[C@H](CO)NC(=O)[C@H](CO)NC(=O)OCc1ccccc1 (Cbz-SSKAL-aldehyde)
> 50 µM | CC(C)C[C@@H](C=O)NC(=O)[C@H](CSC(C)(C)C)NC(=O)[C@H](CCCCN)NC(=O)[C@H](CO)NC(=O)[C@H](CO)NC(=O)OCc1ccccc1 (Cbz-SSKC(tBu)L-aldehyde)
> 500 µM | CC(C)C[C@@H](C=O)NC(=O)[C@@H]1[C@H](O)CCN1C(=O)[C@H](CCCCN)NC(=O)[C@H](CO)NC(=O)[C@H](CO)NC(=O)OCc1ccccc1 (Cbz-SSK[Pro(3R-OH)]L-aldehyde)
> 500 µM | CC(C)C[C@@H](C=O)NC(=O)[C@@H]1CCCN1C(=O)[C@H](CCCCN)NC(=O)[C@H](CO)NC(=O)[C@H](CO)NC(=O)OCc1ccccc1 (Cbz-SSKPL-aldehyde)
18.6 µM | CC(C)C[C@@H](C=O)NC(=O)[C@H](Cc1ncc[nH]1)NC(=O)[C@H](CCCCN)NC(=O)[C@H](CO)NC(=O)[C@H](CO)NC(=O)OCc1ccccc1 (Cbz-SSK[Ala(imidazol-2-yl)]L-aldehyde)
> 100 µM | CC(C)C[C@@H](C=O)NC(=O)[C@H](C)N(C(=O)[C@H](CCCCN)NC(=O)[C@H](CO)NC(=O)[C@H](CO)NC(=O)OCc1ccccc1)c1ccc2ccccc2c1 (Cbz-SSK[X2]L-aldehyde)
7.5 µM | CSCC[C@H](NC(=O)[C@H](CO)NC(=O)[C@H](CO)NC(=O)OCc1ccccc1)C(=O)N[C@@H](CC(C)C)C(=O)N[C@H](C=O)CC(C)C (Cbz-SSMLL-aldehyde)
13.1 µM | CC(C)C[C@@H](C=O)NC(=O)[C@H](CC(C)C)NC(=O)[C@H](C)N(C(=O)[C@H](CO)NC(=O)[C@H](CO)NC(=O)OCc1ccccc1)C1CCCCC1 (Cbz-SS[N(cHex)Ala]LL-aldehyde)
25.9 µM | CC(C)C[C@@H](C=O)NC(=O)[C@H](CC(C)C)NC(=O)[C@H](CC[S+](C)[O-])NC(=O)[C@H](CO)NC(=O)[C@H](CO)NC(=O)OCc1ccccc1 (stereo partly specified) (Cbz-SS[Met(O)]LL-aldehyde)
> 500 µM | CC(C)C[C@@H](C=O)NC(=O)[C@H](Cc1ccc(Br)cc1)NC(=O)[C@H](CCCCN)NC(=O)[C@H](CO)NC(=O)[C@H](CO)NC(=O)OCc1ccccc1 (Cbz-SSK[Phe(4-Br)]L-aldehyde)
21.8 µM | CC(C)C[C@@H](C=O)NC(=O)[C@H](CCC(N)=O)NC(=O)[C@H](CCCCN)NC(=O)[C@H](CO)NC(=O)[C@H](CO)NC(=O)OCc1ccccc1 (Cbz-SSKQL-aldehyde)
> 1000 µM | CC(C)C[C@@H](C=O)NC(=O)CNC(=O)[C@H](CCCCN)NC(=O)[C@H](CO)NC(=O)[C@H](CO)NC(=O)OCc1ccccc1 (Cbz-SSKGL-aldehyde)
> 1000 µM | CC(C)C[C@@H](C=O)NC(=O)[C@H](CC(=O)O)NC(=O)[C@H](CCCCN)NC(=O)[C@H](CO)NC(=O)[C@H](CO)NC(=O)OCc1ccccc1 (Cbz-SSKDL-aldehyde)
37.4 µM | CC[C@H](C)C[C@H](NC(=O)[C@H](CCCCN)NC(=O)[C@H](CO)NC(=O)[C@H](CO)NC(=O)OCc1ccccc1)C(=O)N[C@H](C=O)CC(C)C (Cbz-SSK[hIle]L-aldehyde)
> 50 µM | CC(C)C[C@@H](C=O)NC(=O)CN(C(=O)[C@H](CCCCN)NC(=O)[C@H](CO)NC(=O)[C@H](CO)NC(=O)OCc1ccccc1)c1ccccc1 (Cbz-SSK[NPhGly]L-aldehyde)
> 1000 µM | CC(C)C[C@@H](C=O)NC(=O)[C@H](CC(C)C)NC(=O)[C@H](CCC(=O)O)NC(=O)[C@H](CO)NC(=O)[C@H](CO)NC(=O)OCc1ccccc1 (Cbz-SSELL-aldehyde)
> 50 µM | CC(C)C[C@@H](C=O)NC(=O)[C@H](CCCCN)NC(=O)[C@H](CCCCN)NC(=O)[C@H](CO)NC(=O)[C@H](CO)NC(=O)OCc1ccccc1 (Cbz-SSKKL-aldehyde)
43.8 µM | CC(C)C[C@@H](C=O)NC(=O)[C@H](CC(C)C)NC(=O)[C@@H](NC(=O)[C@H](CO)NC(=O)[C@H](CO)NC(=O)OCc1ccccc1)[C@@H](C)O (Cbz-SSTLL-aldehyde)

tested on: not listed separately; assay: Selectivity ratio of Ki for chymotrypsin to Ki for prostate-specific antigen; conditions: Prostate gland

Ratio Ki | SMILES
60 | CC(C)C[C@H](NC(=O)[C@H](CC(C)C)NC(=O)[C@H](CCCCN)NC(=O)[C@H](CO)NC(=O)[C@H](CO)NC(=O)OCc1ccccc1)B(O)O (Cbz-SSKL-boroLeu)
